These results are taken from patent US20250121083A1, “Tumor-Associated Calcium Signal Transducer 2 (TACSTD2) Antibody-Maytansine Conjugates and Methods of Use Thereof” (priority 2021, published 2025).

For data set [1], the system named is TACSTD2-positive cell lines Bx-PC-3, NCI-H87, NCI-H292, and MDA-MB-468. The experiment in a line: In vitro cytotoxicity, Cell Titer-Glo, 5 d. It is filed as cell-based. To be noted: 120 h, range over the four tested cell lines, read-out: IC50 concentrations. On the procedure: The TACSTD2-positive cell lines, Bx-PC-3, […], NCI-H292, and MDA-MB-468 were obtained from the ATCC cell bank. The cells were maintained in RPMI 1640 or DMEM medium (Cellgro) supplemented with 10 or 20% fetal bovine serum (Invitrogen) and Glutamax (Invitrogen). 24 h prior to plating, cells were passaged to ensure log-phase growth. On the day of plating, 5000 cells/well were seeded onto 96-well plates in 100 μL normal growth medium supplemented with 10 IU penicillin and 10 μg/mL streptomycin (Cellgro). […] After 5 d, 100 μL/well of Cell Titer-Glo reagent (Promega) was added, and luminescence was measured using a Molecular Devices SpectraMax M5 plate reader. GraphPad Prism software was used for data analysis.
A general note: Cellular ATP, detected with luciferase, serves as a proxy for viable cell number.

The test system of data set [2] is MDA-MB-468 cells. The experiment in a line: In vitro cytotoxicity, Cell Titer-Glo, 8 d. To be noted: Homo sapiens, 192 h. It is filed as cell-based. The method, then: Methods: The TACSTD2-positive cell line, MDA-MB-468 was obtained from the ATCC cell bank. The cells were maintained in DMEM medium supplemented with 10% fetal bovine serum (Invitrogen), 2× Glutamax (Invitrogen) and 1× antibiotic/antimycotic (Corning). On the day of plating, 1500 cells/well were seeded onto 96-well plates in 100 μL normal growth medium. Cells were treated at various concentrations with 20 μL of diluted analytes (sacituzumab compound 21 ADC or free belotecan payload), and the plates were incubated at 37° C. in an atmosphere of 5% CO2. After 8 d, 100 μL/well of Cell Titer-Glo reagent (Promega) was added, and luminescence was measured using a Molecular Devices SpectraMax M5 plate reader. GraphPad Prism software was used for data analysis.

The subject of data set [3] is NCI-H292 xenograft model. The experiment in a line: NCI-H292 xenograft study. Conditions: 26 mg/kg x 4 doses, i.v.; 8 mice per group. Type of data set: in vivo, female SCID Beige mice. The source says:
Methods: For the NCI-H292 study, female SCID Beige mice (8 per group) were inoculated subcutaneously with 5 million NCI-H292 cells in PBS. Treatment began when the tumors reached an average of 116 mm^3. For the NCI-N87 study, female BALB/c nude mice (8 per group) were inoculated subcutaneously with 10 million NCI-N87 cells in a 1:1 solution of PBS:Matrigel. Treatment began when the tumors reached an average of 221 mm^3. […] Two general dosing schedules were used: either test articles were delivered once every 3 wk (arrowheads) or they were delivered two times in a three week period, on days 0 and 7 (arrows). The dosing cycles were repeated twice, so that animals in the first dosing group received a total of 2 doses, while the animals in the second dosing group received a total of 4 doses. The animals were monitored twice weekly for body weight and tumor size. Animals were euthanized when tumors reached 2000 mm^3.
For the results shown in FIG. 8, CR refers to an individual mouse that has no detectable tumor volume, which could be for only a short time, for example, one observation, or it could be for a longer period. […] The lines in FIG. 8 show the mean tumor volume across all mice in a group. Because 8 mice were used per group, the line shown in FIG. 8 might not go to zero; however, there could still be individual animals that attained CR.

The conditions of data set [4]: cited from earlier work.

For `COc1cc2cc(c1Cl)N(C)C(=O)C[C@H](OC(=O)[C@H](C)N(C)C(C)=O)[C@]1(C)O[C@H]1[C@H](C)[C@@H]1C[C@@](O)(NC(=O)O1)[C@H](OC)/C=C/C=C(\C)C2` [free maytansine, maytansine], the values for the IC50 in data set [1] and in data set [2] were 0.05 to 0.23 nM and 0.77 nM, respectively.

As to Trodelvy [reference compound], the “complete responses (CRs)” value in data set [3] is 1/8.

B1: DS-1062: Daiichi Sankyo's TROP-2-targeted ADC (conjugate, chains of the INN, looked up)
VH: QVQLVQSGAEVKKPGASVKVSCKASGYTFTTAGMQWVRQAPGQGLEWMGWINTHSGVPKYAEDFKGRVTISADTSTSTAYLQLSSLKSEDTAVYYCARSGFGSSYWYFDVWGQGTLVTVSS
VL: DIQMTQSPSSLSASVGDRVTITCKASQDVSTAVAWYQQKPGKAPKLLIYSASYRYTGVPSRFSGSGSGTDFTLTISSLQPEDFAVYYCQQHYITPLTFGQGTKLEIK
modifications: deruxtecan payload
notes: Daiichi Sankyo's TROP-2-targeted ADC
Regarding B1, the intestinal toxicity entry in data set [4] (10 mg/kg) is reported as “toxicity findings in the intestines”. Besides, the “safety signals in healthy tissues that express TROP-2” value in data set [4] (>10 mg/kg, skin, cornea, oral, esophageal, vaginal mucosa) is on record as “key adverse safety signals (including necrosis)”.
